Measurements: patent publication US8853213B2, “Bicyclic compound for modulating G protein-coupled receptors” (Hanmi Pharm. Co., Ltd, priority 2011, dated 2014)

Molecular target: T1, GPR119 (Homo sapiens, UniProt Q8TDV5)
T1 construct: host or cells: CHO-K1 (CRE-bla reporter, doxycycline-induced)
T1 sequence (Q8TDV5 1-335): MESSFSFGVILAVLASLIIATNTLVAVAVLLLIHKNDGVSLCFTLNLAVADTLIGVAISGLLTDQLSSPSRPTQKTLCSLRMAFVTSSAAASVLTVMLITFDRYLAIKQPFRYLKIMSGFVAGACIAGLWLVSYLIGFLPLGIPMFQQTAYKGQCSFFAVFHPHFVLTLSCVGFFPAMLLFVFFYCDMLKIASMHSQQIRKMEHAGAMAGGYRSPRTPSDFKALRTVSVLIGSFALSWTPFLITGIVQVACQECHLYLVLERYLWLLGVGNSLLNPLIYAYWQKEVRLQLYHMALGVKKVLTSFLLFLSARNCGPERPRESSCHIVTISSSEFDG
Test: Controlling Effect of GPR119 in CRE-bla CHO-K1 Cells (EC50)
Format: cell-based
Conditions: GPR119 CRE-bla CHO-K1 cell line, 5 hr incubation with compound, β-lactamase LiveBLAzer-FRET B/G readout; read-out: controlling effect against GPR119 in CRE-bla CHO-K1 cell line (EC50)
Experimental: Controlling Effect of GPR119 in CRE-bla CHO-K1 Cells (EC50)
The day before the experiment, GPR119 CRE-bla CHO-K1 cell line purchased from Invitrogen was seeded in a 96 black well plate in an amount of 80 μl at a density of 5×10^4 cells. After the seeding, 10 μl of doxycycline in a concentration of 1 μg/ml was added to each well and incubated in an incubator at 37° C. under 5% CO2 for about 16 to 20 hr.
The day of experiment, sample compounds were performed a 10-fold serial dilution with a culture medium at various concentrations of 1 uM to […]. Considering that the culture medium used in the seeding and doxycycline are together applied, the sample compounds were diluted to a 5-fold dilution of the planned concentration. 20 μl of the compound diluted with the culture medium was added to each well and incubated in the incubator for 5 hr. The compound-untreated group was added with 20 μl of 0.5% dimethyl sulfoxide (DMSO) diluted with the culture medium. After 5 hr from the incubation, substrate mixture of a 6-fold concentration were prepared; 6 μl of 1 mM LiveBLAzer™-FRET B/G(CCF4-AM) substrate, 60 μl of solution B, 904 μl of solution C and 30 μl of solution D. 12 μl of the substrate mixture was added to each well and allowed to be kept at room temperature for 2 hr with shading the light. Fluorescence intensity value of blue channel and green channel was determined by a fluorescence microplate reader at 409 nm/460 nm and 409 nm/[…] (excitation/emission), respectively. In order to confirm the controlling effect of the inventive compounds against GPR119, EC50 (half maximal effective concentration) was determined based on the determined values. EC50, the concentration at which 50% activity of β-lactamase, was determined according to the following Equation: Equation=[(Ti−Tz)/(C−Tz)]×100
[Wherein, Ti: Cell density of the compound-treated group; Tz: Cell density of the negative control group; and C: Cell density of the positive control group]

EC50	Molecule
< 100 nM	7-(2-fluoro-4-4-[1-(5-trifluoromethylpyrimidin-2-yl)-piperidin-4-yloxy]-thieno[3,2-d]pyrimidine [Example 82]
< 100 nM	CS(=O)(=O)c1ccc(-c2csc3c(N4CCC(c5nc(C6CC6)no5)CC4)ncnc23)cc1 [Example 1, 3-cyclopropyl-5-(1-(7-(4-methanesulfonyl-phenyl)thieno[3,2-d]pyrimidin-4-yl)piperidin-4-yl)-1,2,4-oxadiazole]
> 1000 nM	CS(=O)(=O)c1ccc(-c2csc3c(N4CCCC4)ncnc23)cc1 [Example 2, 7-(4-methanesulfonyl-phenyl)-4-(pyrrolidin-1-yl)thieno[3,2-d]pyrimidine]
> 1000 nM	CS(=O)(=O)c1ccc(-c2csc3c(N4CCCCC4)ncnc23)cc1 [Example 3, 7-(4-methanesulfonyl-phenyl)-4-(piperidin-1-yl)thieno[3,2-d]pyrimidine]
100 to 1000 nM	CCc1noc(C2CCN(c3ncnc4c(-c5ccc(S(C)(=O)=O)cc5)csc34)CC2)n1 [Example 4, 3-ethyl-5-(1-(7-(4-methanesulfonyl-phenyl)thieno[3,2-d]pyrimidin-4-yl)piperidin-4-yl)-1,2,4-oxadiazole]
< 100 nM	CC(C)c1noc(C2CCN(c3ncnc4c(-c5ccc(S(C)(=O)=O)cc5)csc34)CC2)n1 [Example 5, 3-isopropyl-5-(1-(7-(4-methanesulfonyl-phenyl)thieno[3,2-d]pyrimidin-4-yl)piperidin-4-yl)-1,2,4-oxadiazole]
< 100 nM	CS(=O)(=O)c1ccc(-c2csc3c(N4CCC(c5nc(C6CCCC6)no5)CC4)ncnc23)cc1 [Example 6, 3-cyclopentyl-5-(1-(7-(4-methanesulfonyl-phenyl)thieno[3,2-d]pyrimidin-4-yl)piperidin-4-yl)-1,2,4-oxadiazole]
< 100 nM	CS(=O)(=O)c1ccc(-c2csc3c(N4CCC(c5nc(C6CCCCC6)no5)CC4)ncnc23)cc1 [Example 7, 3-cyclohexyl-5-(1-(7-(4-methanesulfonyl-phenyl)thieno[3,2-d]pyrimidin-4-yl)piperidin-4-yl)-1,2,4-oxadiazole]
100 to 1000 nM	CS(=O)(=O)c1ccc(-c2csc3c(N4CCC(c5nc(-c6ccccc6)no5)CC4)ncnc23)cc1 [Example 8, 5-(1-(7-(4-(methanesulfonylphenyl)phenyl)thieno[3,2-d]pyrimidin-4-yl)piperidin-4-yl)-3-phenyl-1,2,4-oxadiazole]
100 to 1000 nM	CC(C)c1noc(N2CCN(c3ncnc4c(-c5ccc(S(C)(=O)=O)cc5)csc34)CC2)n1 [Example 9, 3-isopropyl-5-(4-(7-(4-methanesulfonyl-phenyl)thieno[3,2-d]pyrimidin-4-yl)piperazin-1-yl)-1,2,4-oxadiazole]
100 to 1000 nM	CC(C)(C)OC(=O)N1CCN(c2ncnc3c(-c4ccc(S(C)(=O)=O)cc4)csc23)CC1 [Example 10, tert-butyl 4-(7-(4-methanesulfonyl-phenyl)thieno[3,2-d]pyrimidin-4-yl)piperazine-1-carboxylate]
100 to 1000 nM	CCc1cnc(N2CCN(c3ncnc4c(-c5ccc(S(C)(=O)=O)cc5)csc34)CC2)nc1 [Example 11, 4-(4-(5-ethylpyrimidin-2-yl)piperazin-1-yl)-7-(4-methanesulfonyl-phenyl)thieno[3,2-d]pyrimidine]
< 100 nM	CC(C)c1noc(C2CCN(c3ncnc4c(-c5ccc(S(C)(=O)=O)cc5F)csc34)CC2)n1 [Example 12]
> 1000 nM	CC(C)c1noc(C2CCN(c3ncnc4c(-c5ccc(S(C)(=O)=O)c(F)c5)csc34)CC2)n1 [Example 13]
> 1000 nM	CC(C)c1noc(C2CCN(c3ncnc4c(-c5ccc([N+](=O)[O-])cc5)csc34)CC2)n1 [Example 14, 4-[4-(3-isopropyl-[1,2,4]oxadiazol-5-yl)-piperidin-1-yl]-7-(4-nitro-phenyl)-thieno[3,2-d]pyrimidine]
100 to 1000 nM	CC(C)c1noc(C2CCN(c3ncnc4c(-c5ccc(C(=O)O)cc5)csc34)CC2)n1 [Example 15, 4-{4-[4-(3-isopropyl-[1,2,4]oxadiazol-5-yl)-piperidin-1-yl]-thieno[3,2-d]pyrimidin-7-yl}-benzoic acid]
100 to 1000 nM	COC(=O)c1ccc(-c2csc3c(N4CCC(c5nc(C(C)C)no5)CC4)ncnc23)cc1 [Example 16, 4-{4-[4-(3-isopropyl-[1,2,4]oxadiazol-5-yl)-piperidin-1-yl]-thieno[3,2-d]pyrimidin-7-yl}-benzoic acid methyl ester]
< 100 nM	CC(C)(C)c1noc(C2CCN(c3ncnc4c(-c5ccc(S(C)(=O)=O)cc5F)csc34)CC2)n1 [Example 17, 4-[4-(3-tert-butyl-[1,2,4]oxadiazol-5-yl)-piperidin-1-yl]-7-(2-fluoro-4-methanesulfonyl-phenyl)-thieno[3,2-d]pyrimidine]
< 100 nM	CS(=O)(=O)c1ccc(-c2csc3c(N4CCC(c5nc(C6CC6)no5)CC4)ncnc23)c(F)c1 [Example 18, 4-[4-(3-cyclopropyl-[1,2,4]oxadiazol-5-yl)-piperidin-1-yl]-7-(2-fluoro-4-methanesulfonyl-phenyl)-thieno[3,2-d]pyrimidine]
< 100 nM	CS(=O)(=O)c1ccc(-c2csc3c(N4CCC(c5nc(C6CCCC6)no5)CC4)ncnc23)c(F)c1 [Example 19, 4-[4-(3-cyclopentyl-[1,2,4]oxadiazol-5-yl)-piperidin-1-yl]-7-(2-fluoro-4-methanesulfonyl-phenyl)-thieno[3,2-d]pyrimidine]
< 100 nM	CCCS(=O)(=O)c1ccc(-c2csc3c(N4CCC(c5nc(C(C)C)no5)CC4)ncnc23)cc1 [Example 20, 4-[4-(3-isopropyl-[1,2,4]oxadiazol-5-yl)-piperidin-1-yl]-7-(4-(propylsulfonyl)phenyl)-thieno[3,2-d]pyrimidine]
< 100 nM	CC(C)c1noc(C2CCN(c3ncnc4c(-c5ccc(S(=O)(=O)C6CC6)cc5)csc34)CC2)n1 [Example 21, 7-(4-(cyclopropylsulfonyl)phenyl)-4-[4-(3-isopropyl-[1,2,4]oxadiazol-5-yl)-piperidin-1-yl]-thieno[3,2-d]pyrimidine]
< 100 nM	CC(C)c1noc(C2CCN(c3ncnc4c(-c5ccc(S(=O)(=O)C(C)C)cc5)csc34)CC2)n1 [Example 22, 4-[4-(3-isopropyl-[1,2,4]oxadiazol-5-yl)-piperidin-1-yl]-7-(4-(isopropylsulfonyl)phenyl)-thieno[3,2-d]pyrimidine]
< 100 nM	CC(C)c1noc(C2CCN(c3ncnc4c(-c5ccc(S(=O)(=O)C6CCCC6)cc5)csc34)CC2)n1 [Example 23, 7-(4-(cyclopentylsulfonyl)phenyl)-4-[4-(3-isopropyl-[1,2,4]oxadiazol-5-yl)-piperidin-1-yl]-thieno[3,2-d]pyrimidine]
< 100 nM	CCCS(=O)(=O)c1ccc(-c2csc3c(N4CCC(c5nc(C(C)C)no5)CC4)ncnc23)c(F)c1 [Example 24, 7-4-(2-fluoro-(4-propylsulfonyl)phenyl)-4-[4-(3-isopropyl-[1,2,4]oxadiazol-5-yl)-piperidin-1-yl]-thieno[3,2-d]pyrimidine]
< 100 nM	Cn1cc(-c2ccc(S(C)(=O)=O)cc2)c2ncnc(OC3CCN(C(=O)OC(C)(C)C)CC3)c21 [Example 25, tert-butyl 4-(5-methyl-7-(4-methanesulfonyl-phenyl)-5H-pyrrolo[3,2-d]pyrimidin-4-yloxy)piperidine-1-carboxylate]
> 1000 nM	Cn1cc(-c2ccc(S(C)(=O)=O)cc2)c2ncnc(OC3CCNCC3)c21 [Example 26, 5-methyl-7-(4-methanesulfonyl-phenyl)-4-(piperidin-4-yloxy)-5H-pyrrolo[3,2-d]pyrimidine]
< 100 nM	CCc1cnc(N2CCC(Oc3ncnc4c(-c5ccc(S(C)(=O)=O)cc5)cn(C)c34)CC2)nc1 [Example 27, 4-(1-(5-ethylpyrimidin-2-yl)piperidin-4-yloxy)-5-methyl-7-(4-methanesulfonyl-phenyl)-5H-pyrrolo[3,2-d]pyrimidine]
< 100 nM	Cn1cc(-c2ccc(S(C)(=O)=O)cc2)c2ncnc(OC3CCN(c4ncc(C(F)(F)F)cn4)CC3)c21 [Example 28, 5-methyl-7-(4-methanesulfonyl-phenyl)-4-(1-(5-(trifluoromethyl)pyrimidin-2-yl)piperidin-4-yloxy)-5H-pyrrolo[3,2-d]pyrimidine]
